Our source for the EC50 values is patent US8536114B2, “Macrocycles” (Scynexis, Inc., priority 2008, dated 2013).

Numbered stars: 1 amine (or outer) side, 2 acyl side, 3 side chain; on linkers, the order of the positions; unused ones are H or OH. Square brackets hold non-standard residues; d marks the D form. Peptide text beside a SMILES is read from it. ξ: configuration not given here. X1 = CC(=O)OC(C)(C)C[C@@H](C(=O)[*:2])N(C)[*:1]; ξNMeBmt = C/C=C/C[C@@H](C)[C@@H](O)C(NC)C(=O)O; dNMeL = CN[C@H](CC(C)C)C(=O)O; dNMeV = CN[C@@H](C(=O)O)C(C)C; dAbu = CC[C@@H](N)C(=O)O; Sar = CNCC(=O)O

One test deals with IL-2. Nature of the test: T Cell stimulation (IL-2) in Jurkat cells with anti-CD3 and anti-CD28 co-stimulation. Type of test: cell-based. To be noted: Homo sapiens, supernatant after 6 hours. The procedure: Compounds of formula (I) were tested for their T Cell stimulation (IL-2) in Jurkat cells with anti-CD3 and anti-CD28 co-stimulation. […] All compounds to be tested were dissolved in dimethyl sulfoxide. Cytotoxicity was evaluated with parallel Alamar Blue plates. Jurkat cells were seeded at 2×10^5 cells per well in 190 μL growth media in a 96-well plate. Cells were cultured in RPMI 1640 medium, 10% fetal bovine serum, and L-Glutamine with incubation at 37° C. with 5% carbon dioxide. After 1 hour of incubation the cells were stimulated with immobilized anti-CD3 (0.4 μg/well), anti-CD28 soluble (2 μg/mL). After 6 hours the sample supernatants were harvested and stored at −80° C. 50 μL samples of supernatant were tested for IL-2 using a Luminex® 1-plex assay.

Test [1] relates to Mitochondria prepared from rat livers. Briefly: Mitochondrial permeability transition (Ca2+-induced mitochondrial swelling). It is filed as biochemical. Conditions: rat liver mitochondria, swelling induced by 150 micro molar Ca2+, compounds added 5 minutes before; read-out: MPT EC50 (inhibition of mitochondrial swelling). The procedure:
Mitochondrial permeability transition (MPT) was determined by measuring swelling of the mitochondria induced by Ca^2+. The procedure was adapted from the method described by Blattner et al., 2001, Analytical Biochem., 295: 220. Mitochondria were prepared from rat livers, which had been perfused with phosphate-buffered saline (PBS) to remove blood, using standard methods that utilized gentle homogenization in sucrose based buffer and then differential centrifugation to first remove cellular debris and then to pellet the mitochondria. Swelling was induced by 150 micro molar Ca^2+ (added from a concentrated solution of Calcium chloride) and was monitored by measuring the scattering at 535-540 nm. Representative compounds were added 5 minutes before swelling was induced. EC50 were determined by comparing swelling with and without the compounds of formula (I).

In the test on IL-2, `C/C=C/C[C@@H](C)[C@@H](O)C1C(=O)N[C@H](CC)C(=O)N(C)CC(=O)N(C)[C@@H](CC(C)(C)OC(C)=O)C(=O)N[C@H](C(C)C)C(=O)N(C)[C@H](CC(C)C)C(=O)N[C@H](C)C(=O)N[C@@H](C)C(=O)N(C)[C@H](CC(C)C)C(=O)N(C)[C@H](CC(C)C)C(=O)N(C)[C@H](C(C)C)C(=O)N1C` (some centres unmarked) [Compound E, [4′-acetoxy-N-methylleucine]^4cyclosporine A] (cyclo(A[dNMeL][dNMeL][dNMeV][ξNMeBmt][dAbu][Sar][X1][dV][dNMeL][dA])) showed an EC50 of less than 0.01 µM.

As for “[4′-hydroxy-N-methylleucine]^4cyclosporine A S-benzyl-4′-thiocarbonate [Compound X]”, in test [1], the EC50 is greater than 30 µM.
